Common to all, as to test: relative viability (nuclei count vs DMSO), 5 days (fraction); higher = more cells survive
Compound in the test “Gemcitabine + Alpelisib”: Nc1ccn([C@@H]2O[C@H](CO)[C@@H](O)C2(F)F)c(=O)n1 [Gemcitabine] + Cc1nc(NC(=O)N2CCC[C@H]2C(N)=O)sc1-c1ccnc(C(C)(C)C(F)(F)F)c1 [Alpelisib] (partner 2 µM)
The procedure, abridged: (§1)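 Lung cancer cell lines were seeded in 1536-well plates and dosed by pin tool the next day, with either a single drug or a fixed anchor-drug dose combined with five library-drug doses (not always all listed) spaced in √10 steps. Five days later, one step fixed the cells and stained their nuclei (final 0.05% Triton X-100, 1% formaldehyde, 1 ug/ml Hoechst), and nuclei were counted on 4× images. Relative viability is the nuclei count in treated wells divided by the count in vehicle wells, and each value is the median of duplicate plates.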

Compound in the test “Gemcitabine + Pemetrexed”: Nc1ccn([C@@H]2O[C@H](CO)[C@@H](O)C2(F)F)c(=O)n1 [Gemcitabine] + Nc1nc2[nH]cc(CCc3ccc(C(=O)N[C@@H](CCC(=O)O)C(=O)O)cc3)c2c(=O)[nH]1 [Pemetrexed] (partner 0.2 µM)
The essentials: as §1

Compound in the test “Gemcitabine + Foretinib”: Nc1ccn([C@@H]2O[C@H](CO)[C@@H](O)C2(F)F)c(=O)n1 [Gemcitabine] + COc1cc2c(Oc3ccc(NC(=O)C4(C(=O)Nc5ccc(F)cc5)CC4)cc3F)ccnc2cc1OCCCN1CCOCC1 [Foretinib] (partner 0.25 µM)
The essentials: as §1

Compound in the test “Gemcitabine + Olaparib”: Nc1ccn([C@@H]2O[C@H](CO)[C@@H](O)C2(F)F)c(=O)n1 [Gemcitabine] + O=C(c1cc(Cc2n[nH]c(=O)c3ccccc23)ccc1F)N1CCN(C(=O)C2CC2)CC1 [Olaparib] (partner 8 µM)
The essentials:
as §1

Experimental findings from the supplement of paper PMC10307832 are described below.

As for BEN, the relative viability with Gemcitabine + Alpelisib (first compound 0.001 µM) worked out at 1.09; with Gemcitabine + Alpelisib (first compound 0.003162 µM), 0.659; in the test with Gemcitabine + Alpelisib (first compound 0.01 µM) it was 0.253; with Gemcitabine + Alpelisib (first compound 0.03162 µM), 0.117; with Gemcitabine + Alpelisib (first compound 0.1 µM), 0.0816; with Gemcitabine + Pemetrexed (first compound 0.001 µM), 0.774. The relative viability turned out to be 0.417 with Gemcitabine + Pemetrexed (first compound 0.003162 µM); 0.277 with Gemcitabine + Pemetrexed (first compound 0.01 µM); 0.164 with Gemcitabine + Pemetrexed (first compound 0.03162 µM); 0.223 with Gemcitabine + Pemetrexed (first compound 0.1 µM); 0.77 with Gemcitabine + Foretinib (first compound 0.001 µM); 0.575 in the test with Gemcitabine + Foretinib (first compound 0.003162 µM). Besides, the relative viability in the test with Gemcitabine + Foretinib (first compound 0.01 µM) worked out at 0.303; in the test with Gemcitabine + Foretinib (first compound 0.03162 µM) it was 0.112; with Gemcitabine + Foretinib (first compound 0.1 µM), 0.119; in the test with Gemcitabine + Olaparib (first compound 0.001 µM) it was 0.946; with Gemcitabine + Olaparib (first compound 0.003162 µM), 0.421; in the test with Gemcitabine + Olaparib (first compound 0.01 µM) it was 0.234. Further, the relative viability worked out at 0.193 with Gemcitabine + Olaparib (first compound 0.03162 µM) and 0.145 with Gemcitabine + Olaparib (first compound 0.1 µM).
On to LC-2-ad, for which the relative viability with Gemcitabine + Alpelisib (first compound 0.001 µM) was 0.901; in the test with Gemcitabine + Alpelisib (first compound 0.003162 µM), 0.833; with Gemcitabine + Alpelisib (first compound 0.01 µM) it was 0.5; with Gemcitabine + Alpelisib (first compound 0.03162 µM), 0.0947; with Gemcitabine + Alpelisib (first compound 0.1 µM), 0.0966; with Gemcitabine + Pemetrexed (first compound 0.001 µM), 0.266. The relative viability was determined as 0.28 with Gemcitabine + Pemetrexed (first compound 0.003162 µM); 0.256 with Gemcitabine + Pemetrexed (first compound 0.01 µM); 0.255 in the test with Gemcitabine + Pemetrexed (first compound 0.03162 µM); 0.233 with Gemcitabine + Pemetrexed (first compound 0.1 µM); 0.943 with Gemcitabine + Foretinib (first compound 0.001 µM); 0.829 with Gemcitabine + Foretinib (first compound 0.003162 µM). Also, the relative viability with Gemcitabine + Foretinib (first compound 0.01 µM) is 0.712; with Gemcitabine + Foretinib (first compound 0.03162 µM), 0.206; with Gemcitabine + Foretinib (first compound 0.1 µM), 0.158; in the test with Gemcitabine + Olaparib (first compound 0.001 µM), 0.805; with Gemcitabine + Olaparib (first compound 0.003162 µM), 0.791; with Gemcitabine + Olaparib (first compound 0.01 µM), 0.65. Further, the relative viability turned out to be 0.482 with Gemcitabine + Olaparib (first compound 0.03162 µM) and 0.224 in the test with Gemcitabine + Olaparib (first compound 0.1 µM).
Turning to COR-L23, the relative viability came out at 0.763 with Gemcitabine + Alpelisib (first compound 0.001 µM); 0.634 in the test with Gemcitabine + Alpelisib (first compound 0.003162 µM); 0.229 in the test with Gemcitabine + Alpelisib (first compound 0.01 µM); 0.118 with Gemcitabine + Alpelisib (first compound 0.03162 µM); 0.0742 with Gemcitabine + Alpelisib (first compound 0.1 µM); 0.198 with Gemcitabine + Pemetrexed (first compound 0.001 µM). Further, the relative viability in the test with Gemcitabine + Pemetrexed (first compound 0.003162 µM) was 0.19; with Gemcitabine + Pemetrexed (first compound 0.01 µM), 0.19; in the test with Gemcitabine + Pemetrexed (first compound 0.03162 µM) it was 0.14; in the test with Gemcitabine + Pemetrexed (first compound 0.1 µM), 0.129; in the test with Gemcitabine + Foretinib (first compound 0.001 µM) it was 0.972; with Gemcitabine + Foretinib (first compound 0.003162 µM), 0.898. The relative viability with Gemcitabine + Foretinib (first compound 0.01 µM) came out at 0.556; with Gemcitabine + Foretinib (first compound 0.03162 µM), 0.123; with Gemcitabine + Foretinib (first compound 0.1 µM) it was 0.0959; with Gemcitabine + Olaparib (first compound 0.001 µM), 0.35; with Gemcitabine + Olaparib (first compound 0.003162 µM), 0.31; with Gemcitabine + Olaparib (first compound 0.01 µM) it was 0.141. Moreover, the relative viability in the test with Gemcitabine + Olaparib (first compound 0.03162 µM) worked out at 0.0915; in the test with Gemcitabine + Olaparib (first compound 0.1 µM), 0.0858.
Take RERF-LC-KJ: the relative viability was determined as 0.853 with Gemcitabine + Alpelisib (first compound 0.001 µM); 0.849 with Gemcitabine + Alpelisib (first compound 0.003162 µM); 0.856 in the test with Gemcitabine + Alpelisib (first compound 0.01 µM); 0.496 with Gemcitabine + Alpelisib (first compound 0.03162 µM); 0.228 with Gemcitabine + Alpelisib (first compound 0.1 µM); 0.5 with Gemcitabine + Pemetrexed (first compound 0.001 µM). The relative viability in the test with Gemcitabine + Pemetrexed (first compound 0.003162 µM) is 0.485; with Gemcitabine + Pemetrexed (first compound 0.01 µM), 0.459; with Gemcitabine + Pemetrexed (first compound 0.03162 µM), 0.357; with Gemcitabine + Pemetrexed (first compound 0.1 µM) it was 0.263; in the test with Gemcitabine + Foretinib (first compound 0.001 µM), 0.942; with Gemcitabine + Foretinib (first compound 0.003162 µM), 0.89. The relative viability came out at 0.958 with Gemcitabine + Foretinib (first compound 0.01 µM); 0.799 in the test with Gemcitabine + Foretinib (first compound 0.03162 µM); 0.326 with Gemcitabine + Foretinib (first compound 0.1 µM); 1 in the test with Gemcitabine + Olaparib (first compound 0.001 µM); 0.87 with Gemcitabine + Olaparib (first compound 0.003162 µM); 0.804 in the test with Gemcitabine + Olaparib (first compound 0.01 µM). Moreover, the relative viability was 0.389 in the test with Gemcitabine + Olaparib (first compound 0.03162 µM) and 0.293 with Gemcitabine + Olaparib (first compound 0.1 µM).
As for NCI-H1915, the relative viability in the test with Gemcitabine + Alpelisib (first compound 0.001 µM) amounted to 1.02; with Gemcitabine + Alpelisib (first compound 0.003162 µM), 1.11; with Gemcitabine + Alpelisib (first compound 0.01 µM) it was 1.04; with Gemcitabine + Alpelisib (first compound 0.03162 µM), 0.711; in the test with Gemcitabine + Alpelisib (first compound 0.1 µM), 0.308; with Gemcitabine + Pemetrexed (first compound 0.001 µM), 0.484. Further, the relative viability is 0.516 with Gemcitabine + Pemetrexed (first compound 0.003162 µM); 0.453 with Gemcitabine + Pemetrexed (first compound 0.01 µM); 0.513 with Gemcitabine + Pemetrexed (first compound 0.03162 µM); 0.475 with Gemcitabine + Pemetrexed (first compound 0.1 µM); 1.1 with Gemcitabine + Foretinib (first compound 0.001 µM); 1.1 with Gemcitabine + Foretinib (first compound 0.003162 µM). The relative viability with Gemcitabine + Foretinib (first compound 0.01 µM) was found to be 1.04; with Gemcitabine + Foretinib (first compound 0.03162 µM), 0.908; with Gemcitabine + Foretinib (first compound 0.1 µM), 0.468; with Gemcitabine + Olaparib (first compound 0.001 µM), 0.246; in the test with Gemcitabine + Olaparib (first compound 0.003162 µM), 0.255; in the test with Gemcitabine + Olaparib (first compound 0.01 µM) it was 0.258. The relative viability with Gemcitabine + Olaparib (first compound 0.03162 µM) was 0.233; in the test with Gemcitabine + Olaparib (first compound 0.1 µM) it was 0.192.
Turning to NCI-H596, the relative viability came to 0.489 with Gemcitabine + Alpelisib (first compound 0.001 µM); 0.454 with Gemcitabine + Alpelisib (first compound 0.003162 µM); 0.345 with Gemcitabine + Alpelisib (first compound 0.01 µM); 0.329 with Gemcitabine + Alpelisib (first compound 0.03162 µM); 0.194 in the test with Gemcitabine + Alpelisib (first compound 0.1 µM); 0.531 with Gemcitabine + Pemetrexed (first compound 0.001 µM). Further, the relative viability amounted to 0.491 with Gemcitabine + Pemetrexed (first compound 0.003162 µM); 0.476 with Gemcitabine + Pemetrexed (first compound 0.01 µM); 0.403 with Gemcitabine + Pemetrexed (first compound 0.03162 µM); 0.319 in the test with Gemcitabine + Pemetrexed (first compound 0.1 µM); 0.635 in the test with Gemcitabine + Foretinib (first compound 0.001 µM); 0.706 with Gemcitabine + Foretinib (first compound 0.003162 µM). The relative viability in the test with Gemcitabine + Foretinib (first compound 0.01 µM) was 0.287; with Gemcitabine + Foretinib (first compound 0.03162 µM), 0.196; in the test with Gemcitabine + Foretinib (first compound 0.1 µM), 0.309; with Gemcitabine + Olaparib (first compound 0.001 µM), 0.733; with Gemcitabine + Olaparib (first compound 0.003162 µM), 0.714; with Gemcitabine + Olaparib (first compound 0.01 µM), 0.384. Besides, the relative viability is 0.336 with Gemcitabine + Olaparib (first compound 0.03162 µM) and 0.311 with Gemcitabine + Olaparib (first compound 0.1 µM).
As for NCI-H2009, the relative viability with Gemcitabine + Alpelisib (first compound 0.001 µM) was determined as 1.15; with Gemcitabine + Alpelisib (first compound 0.003162 µM) it was 0.552; in the test with Gemcitabine + Alpelisib (first compound 0.01 µM), 0.276; in the test with Gemcitabine + Alpelisib (first compound 0.03162 µM), 0.12; with Gemcitabine + Alpelisib (first compound 0.1 µM), 0.112; in the test with Gemcitabine + Pemetrexed (first compound 0.001 µM) it was 1.08. The relative viability came out at 0.882 with Gemcitabine + Pemetrexed (first compound 0.003162 µM); 0.473 in the test with Gemcitabine + Pemetrexed (first compound 0.01 µM); 0.127 with Gemcitabine + Pemetrexed (first compound 0.03162 µM); 0.0868 in the test with Gemcitabine + Pemetrexed (first compound 0.1 µM); 1.26 with Gemcitabine + Foretinib (first compound 0.001 µM); 0.938 with Gemcitabine + Foretinib (first compound 0.003162 µM). For the same cell line, the relative viability is 0.404 with Gemcitabine + Foretinib (first compound 0.01 µM); 0.185 with Gemcitabine + Foretinib (first compound 0.03162 µM); 0.153 with Gemcitabine + Foretinib (first compound 0.1 µM); 0.717 with Gemcitabine + Olaparib (first compound 0.001 µM); 0.436 with Gemcitabine + Olaparib (first compound 0.003162 µM); 0.191 with Gemcitabine + Olaparib (first compound 0.01 µM). Moreover, the relative viability in the test with Gemcitabine + Olaparib (first compound 0.03162 µM) was 0.102; with Gemcitabine + Olaparib (first compound 0.1 µM), 0.0738.
